Test results as given in PubChem BioAssay AID2750 (The Scripps Research Institute Molecular Screening Center, 2010).
Several values for one entry are separate records, joined by “and”; a condition that tells them apart may be missing. Equal values may be shown once.

Test system: DLD-1 KLF5 promoter-luciferase reporter, luminescence
Test: KLF5 promoter reporter inhibitors, late-stage follow-up, luminescence, DLD-1 cells, powder samples (AID 2750)

Point of comparison: `CCCc1ccc(-c2ccc(/C=C/C(=O)O)cc2)nc1`, IC50 75.2 nM. Against it:
- Cc1ccc2nc(NC(=O)CCCc3nc4ccccc4s3)sc2c1 — 2.4-fold higher, 180 nM
- c1ccc(-c2ccc(-c3nc(-c4ccccn4)no3)cc2)cc1 — 3.8-fold higher, 285 nM
- CN(C(=O)COC(=O)/C=C/c1cccc([N+](=O)[O-])c1)C1CCS(=O)(=O)C1 (stereo unspecified) — 8-fold higher, 603 nM
- COc1cccc(C=NNc2ccc(C(=O)O)cc2)c1O — 7.2-fold lower, 10.4 nM
- O=C(NCCc1ccccc1)c1ccc2c(c1)OCCCO2 — 2.9-fold higher, 217 nM
- CCOC(=O)c1sc(NC(=O)c2cc3c(s2)CCC(C)C3)nc1C (stereo unspecified) — 3.7-fold lower, 20.1 nM
- Cc1cc(C(=O)CN2C(=O)c3ccccc3S2(=O)=O)c(C)n1CC1CCCO1 (stereo unspecified) — within 1.5-fold, 67.6 nM
- COc1ccc(C(=O)Nc2ccccc2C(=O)NN=Cc2ccc(O)c(OC)c2)cc1 — 6.7-fold lower, 11.3 nM
- COc1ccc(OCc2cccc(C(=O)Nn3cc([N+](=O)[O-])cn3)c2)cc1 — 4.7-fold higher, 357 nM
- O=C(NCCc1ccccc1F)c1ccc2c(c1)OCCO2 — 2.2-fold higher, 162 nM
- CCCc1ccc(C(=O)O/N=C(\N)c2ccccn2)cc1 — 1.8-fold higher, 132 nM
- CC(C)(C)c1ccc(C(=O)O/N=C(\N)c2ccccn2)cc1 — 7.9-fold higher, 595 nM
- CN1CCN(c2ccc(-c3ccc4ccccc4n3)cc2)CC1 — 2.8-fold lower, 27.1 nM

In the case of `CC(C)(C)c1ccc(-c2noc(CCC(=O)Nc3cccnc3)n2)cc1`, the IC50 is reported as 71.8 nM and 57.2 nM.
In the case of `CCOC(=O)c1sc(NC(=O)c2ccc3ncsc3c2)nc1C`, the IC50 is reported as 22.1 nM and 18.7 nM.
